Assay results reported in BindingDB's records for doi:10.1021/jm00100a021 (University of Illinois, 1992).

What was measured:
[1] = target: Urokinase-type plasminogen activator (Homo sapiens, UniProt P00749); assay: ChEBML_213149
Excerpt: […] rate constant against Urokinase-type plasminogen activator

Serine protease 1 = target: T1, Serine protease 1 (Bos taurus, UniProt P00760); assay: ChEBML_212371
T1 sequence (P00760 whole entry): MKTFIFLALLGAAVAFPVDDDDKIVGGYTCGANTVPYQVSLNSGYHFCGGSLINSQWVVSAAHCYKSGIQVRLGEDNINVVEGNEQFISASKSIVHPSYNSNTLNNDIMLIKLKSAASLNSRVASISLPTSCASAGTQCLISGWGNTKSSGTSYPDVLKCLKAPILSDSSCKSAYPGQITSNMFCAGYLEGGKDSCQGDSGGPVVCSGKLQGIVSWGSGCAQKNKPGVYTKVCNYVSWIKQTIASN
Excerpt: […] rate constant against trypsin

koff [1] | koff (Serine protease 1) | Structure (SMILES)
0.00015 s⁻¹ | 3.3e-05 s⁻¹ | C=C1CC(c2ccc(N=C(N)N)cc2)CC(=O)O1 (stereo not drawn)
 | 0.000333 s⁻¹ | N=C(N)Nc1ccc(C2CC(=O)O/C(=C/I)C2)cc1 (stereo not drawn)
